From patent publication US11559538B2, “Substituted 1,2-oxaborolan-2-ols as PDE4 inhibitors” (Pfizer Inc., priority 2018, dated 2023)
Like-named read-outs stand apart in the source and are kept apart here.

How the values were obtained:
IL-13 = test: Cytokine assay: IL-13 release from PHA-L stimulated human PBMCs; assay type: cell-based; conditions: read-out: IL13 IC50
Procedure, shortened: (§1)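 PBMC thaw, ~250k cells/well; cpd pre-incubation ~10 min RT; PHA-L 3.5 μg/mL final; 48 h, 37° C, 5% CO2; supernatant HTRF; IC50 by 4-parameter logistic.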

IFNγ = test: Cytokine assay: IFNγ release from PHA-L stimulated human PBMCs; assay type: cell-based
Procedure, shortened: as §1

[1] = biological target: PDE4B (aa 152-484, Uniprot ID Q07343) (Homo sapiens (Human), UniProt Q07343); test: PDE4 SPA assay (scintillation proximity assay); assay type: biochemical; conditions: read-out: PDE4B2 IC50
Chain of PDE4B (aa 152-484, Uniprot ID Q07343) (Q07343 324-656): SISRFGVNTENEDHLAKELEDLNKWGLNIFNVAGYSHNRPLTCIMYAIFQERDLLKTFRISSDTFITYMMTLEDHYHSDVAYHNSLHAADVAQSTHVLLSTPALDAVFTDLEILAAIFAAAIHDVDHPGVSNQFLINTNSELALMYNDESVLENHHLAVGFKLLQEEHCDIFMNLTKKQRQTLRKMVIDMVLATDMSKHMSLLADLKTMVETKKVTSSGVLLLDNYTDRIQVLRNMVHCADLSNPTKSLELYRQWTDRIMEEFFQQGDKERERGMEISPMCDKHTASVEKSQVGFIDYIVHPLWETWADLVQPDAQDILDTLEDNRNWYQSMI
Method: Phosphodiesterase (PDE) activity is determined by measuring the effect of a test agent on the activity of the PDE4B enzyme in a scintillation proximity assay (SPA). At the time of assay, approximately 30 μL of PDE4B (aa 152-484, Uniprot ID Q07343) in 50 mM Tris pH 7.5, 1.3 mM MgC2, 0.004% Brij 35 is added to a 384 well white clear bottom polystyrene plate (Corning) containing 1 μL of varying concentrations of test compound. After −10 minutes at room temperature (RT; 21° C.), the assay is initiated by the addition of 20 μL of a mixture of ^3H-labeled (adenosine 3′, 5′-cyclic phosphate, ammonium salt, [2,8-^3H]; Perkin Elmer) and unlabeled cAMP. The final assay conditions are approximately 81.6 pM PDE4B in 50 mM Tris pH 7.5, 1.3 mM MgCl2, 0.004% Brij 35, 1 μM ^3H-labeled/unlabeled cAMP (1425 dpm/pmol) and the indicated final concentration of test compound (approximately 10 μM to […] by 4-fold dilution). The final concentration of DMSO in the assay is approximately 2.0%. After 30 minutes at RT, the assay is terminated by the addition of approximately 20 μL of an aqueous solution of PDE YSI SPA beads (8 mg/mL in water; Perkin Elmer). The beads are allowed to settle for at least 2 hours and the plate is then counted on a MicroBeta2 (Perkin Elmer). The concentrations and resulting effect values for the tested compound are plotted and the concentration of compound required for 50% effect (IC50) is determined with a four-parameter logistic dose response equation (E-WorkBook, ID Business Solutions Ltd.) and shown in Table 17.

IL-4 = test: Cytokine assay: IL-4 release from PHA-L stimulated human PBMCs; assay type: cell-based; conditions: read-out: IL4 IC50
Procedure, shortened: as §1

Structure (SMILES)	IC50 (IL-13; Homo sapiens, PBMC) [nM]	IC50 (IFNγ; Homo sapiens, PBMC) [nM]	IC50 [1] [nM]	IC50 (IL-4; Homo sapiens, PBMC) [nM]	IC50 (IL-13) [nM]	IC50 (IFNγ) [nM]	IC50 (IL-4) [nM]
CCCOc1cc(-c2cc(C3COB(O)C3)cnc2C)cnc1OC (stereo not drawn) [Example 218, 4-(6′-methoxy-2-methyl-5′-propoxy-[3,3′-bipyridin]-5-yl)-1,2-oxaborolan-2-ol]	2840	2.3	1.45	3.24			
CCOc1c(OC)ccc(-c2cccc(C3COB(O)C3)n2)c1C#N (stereo not drawn) [Example 151, 2-ethoxy-6-(6-(2-hydroxy-1,2-oxaborolan-4-yl)pyridin-2-yl)-3-methoxybenzonitrile]	813	3.48	5.98	39.1			
CCOc1cc(-c2nc(OC)cc(C3COB(O)C3)n2)ccc1OC (stereo not drawn) [Example 185, 4-(2-(3-ethoxy-4-methoxyphenyl)-6-methoxypyrimidin-4-yl)-1,2-oxaborolan-2-ol]	2980	1.3	3.38	5.75			
COc1cc(-c2cccc(C3COB(O)C3)c2)ccc1SC (stereo not drawn) [Example 206, 4-(3′-methoxy-4′-(methylthio)-[1,1′-biphenyl]-3-yl)-1,2-oxaborolan-2-ol]	1790	27.8	2.65	113			
CCCOc1c(OC)ccc(-c2cccc(C3COB(O)C3)n2)c1C#N (single isomer, unassigned) [Example 87, 6-(6-(2-hydroxy-1,2-oxaborolan-4-yl)pyridin-2-yl)-3-methoxy-2-propoxybenzonitrile]	444	3.02	5.03	19.1			
CCOc1cc(-c2cncc(C3COB(O)C3)c2C)c(F)cc1OC (stereo not drawn) [Example 141, 4-(5-(5-ethoxy-2-fluoro-4-methoxyphenyl)-4-methylpyridin-3-yl)-1,2-oxaborolan-2-ol]	701	2.24	0.95	3.35			
CCCOc1cc(-c2nc(C3COB(O)C3)ns2)ccc1OC (stereo not drawn) [Example 147, 4-(5-(4-methoxy-3-propoxyphenyl)-1,2,4-thiadiazol-3-yl)-1,2-oxaborolan-2-ol]	1260	1.57	0.44	2.69			
COc1ccc(-c2cncc(C3COB(O)C3)n2)cc1OC1CCCC1 (stereo not drawn) [Example 125, 4-(6-(3-(cyclopentyloxy)-4-methoxyphenyl)pyrazin-2-yl)-1,2-oxaborolan-2-ol]	577	2.43	1.7	11.3			
CCCOc1cc(-c2cc(C3COB(O)C3)cnc2C)cnc1OC (single isomer, unassigned; enantiomer 1) [Example 219, (−) 4-(6′-methoxy-2-methyl-5′-propoxy-[3,3′-bipyridin]-5-yl)-1,2-oxaborolan-2-ol, enantiomer 1]	2130	1.67	0.82	4.1			
CCOc1nc(-c2cccc(C3=CB(O)OC3)c2)ccc1OC [Example 120, 4-(3-(6-ethoxy-5-methoxypyridin-2-yl)phenyl)-1,2-oxaborol-2(5H)-ol]	2090	7.85	1.11	171			
CCOc1cc(-c2nc(C3COB(O)C3)cs2)ccc1OC (stereo not drawn) [Example 58, 4-(2-(3-ethoxy-4-methoxyphenyl)thiazol-4-yl)-1,2-oxaborolan-2-ol]	103	1.81	0.72	163			
CCCOc1cc(-c2nc(CC(=O)O)cc(C3COB(O)C3)n2)ccc1OC (stereo not drawn) [Example 134, 2-(6-(2-hydroxy-1,2-oxaborolan-4-yl)-2-(4-methoxy-3-propoxyphenyl)pyrimidin-4-yl)acetic acid]	1110	3.04	7.46	1.79			

The next lines start with the values.

IC50 (IL-13; Homo sapiens, PBMC) [nM]	IC50 (IFNγ; Homo sapiens, PBMC) [nM]	IC50 [1] [nM]	IC50 (IL-4; Homo sapiens, PBMC) [nM]	IC50 (IL-13) [nM]	IC50 (IFNγ) [nM]	IC50 (IL-4) [nM]	Structure (SMILES)
265	1.87	1.26	3.63				COc1ccc(-c2cncc(C3COB(O)C3)c2)cc1OCCCO (single isomer, unassigned) [Example 9, 4-(5-(3-(3-hydroxypropoxy)-4-methoxyphenyl)pyridin-3-yl)-1,2-oxaborolan-2-ol]
508	2.94	8.74	104				CCOc1cc(-c2cccc(C3COB(O)C3)n2)ccc1OC (stereo not drawn) [Example 233, 4-(6-(3-ethoxy-4-methoxyphenyl)pyridin-2-yl)-1,2-oxaborolan-2-ol]
750	5.46	3.58	29.4				CCCOc1cc(-c2cncc(C3COB(O)C3)c2)ccc1OCC (stereo not drawn) [Example 104, 4-(5-(4-ethoxy-3-propoxyphenyl)pyridin-3-yl)-1,2-oxaborolan-2-ol]
1490	4.2	7.77	5.58				CCCOc1cc(-c2nc(C)cc(C3COB(O)C3)n2)ccc1OC (stereo not drawn) [Example 54, 4-(2-(4-methoxy-3-propoxyphenyl)-6-methylpyrimidin-4-yl)-1,2-oxaborolan-2-ol]
		1.05		283	0.72	17.6	COc1ccc(-c2cncc(C3COB(O)C3)c2)cc1OC(C)C (single isomer, unassigned) [Example 6, 4-(5-(3-isopropoxy-4-methoxyphenyl)pyridin-3-yl)-1,2-oxaborolan-2-ol]
		10		1130	30.2	77.1	CCOc1cc(-c2cncc(C3COB(O)C3)c2)cc(Cl)c1OC (single isomer, unassigned; enantiomer 2) [Example 173, 4-(5-(3-chloro-5-ethoxy-4-methoxyphenyl)pyridin-3-yl)-1,2-oxaborolan-2-ol, enantiomer 2]
		33.5		10000	68.3	141	CCOc1c(OC)ccc(-c2cncc(C3COB(O)C3)c2)c1C(F)F (single isomer, unassigned) [Example 11, 4-(5-(2-(difluoromethyl)-3-ethoxy-4-methoxyphenyl)pyridin-3-yl)-1,2-oxaborolan-2-ol]
	5.46	3.2	14.2	490			CCCOc1cc(-c2cncc(C3COB(O)C3)c2)ccc1OCC (single isomer, unassigned) [Example 105, 4-(5-(4-ethoxy-3-propoxyphenyl)pyridin-3-yl)-1,2-oxaborolan-2-ol]
1660	9.51	2.13	105				COc1cc(-c2cncc(C3COB(O)C3)c2)ccc1SC (stereo not drawn) [Example 201, 4-(5-(3-methoxy-4-(methylthio)phenyl)pyridin-3-yl)-1,2-oxaborolan-2-ol]
2070	10.3	5.5	20.5				CCOc1ccc(-c2cncc(C3COB(O)C3)c2)c(F)c1OC (stereo not drawn) [Example 217, 4-(5-(4-ethoxy-2-fluoro-3-methoxyphenyl)pyridin-3-yl)-1,2-oxaborolan-2-ol]
115	0.6	1.41	4.87				CCOc1cc(-c2cncc(C3COB(O)C3)c2C)ccc1OC (stereo not drawn) [Example 53, 4-(5-(3-ethoxy-4-methoxyphenyl)-4-methylpyridin-3-yl)-1,2-oxaborolan-2-ol]
1330	19.6	5.14	245				CCOc1ccc(-c2cccc(C3COB(O)C3)c2)cc1OC (stereo not drawn) [Example 182, 4-(4′-ethoxy-3′-methoxy-[1,1′-biphenyl]-3-yl)-1,2-oxaborolan-2-ol]
91	1.85	1.5	3.21				CCOc1cc(-c2cncc(C3COB(O)C3)c2)c(F)cc1OC (single isomer, unassigned) [Example 14, 4-(5-(5-ethoxy-2-fluoro-4-methoxyphenyl)pyridin-3-yl)-1,2-oxaborolan-2-ol]
		0.25		788	0.4	0.78	CCOc1cc(-c2cncc(C3COB(O)C3)c2C(F)F)ccc1OC (single isomer, unassigned) [Example 139, 4-(4-(difluoromethyl)-5-(3-ethoxy-4-methoxyphenyl)pyridin-3-yl)-1,2-oxaborolan-2-ol]
2390	4.04	0.93	36.3				CCCOc1cc(-c2cncc([C@H]3COB(O)C3)c2)ccc1OC [Example 5, (S)-4-(5-(4-methoxy-3-propoxyphenyl)pyridin-3-yl)-1,2-oxaborolan-2-ol]
